This is an account of results in US12698507B2, “Methods and compositions for conferring and/or enhancing herbicide tolerance using protoporphyrinogen IX oxidase of various cyanobacteria or variant thereof” (FarmHannong Co., Ltd., priority 2019, dated 2026).

The target of assay [1] is T1, Thermosynechococcus elongatus PKUAC-SCTE542 protoporphyrinogen IX oxidase CyPPO19, wild type, SEQ ID NO: 1 (MBP fusion) (Thermosynechococcus sichuanensis, UniProt A0A7D6JSC1).
T1 sequence (A0A7D6JSC1 1-467): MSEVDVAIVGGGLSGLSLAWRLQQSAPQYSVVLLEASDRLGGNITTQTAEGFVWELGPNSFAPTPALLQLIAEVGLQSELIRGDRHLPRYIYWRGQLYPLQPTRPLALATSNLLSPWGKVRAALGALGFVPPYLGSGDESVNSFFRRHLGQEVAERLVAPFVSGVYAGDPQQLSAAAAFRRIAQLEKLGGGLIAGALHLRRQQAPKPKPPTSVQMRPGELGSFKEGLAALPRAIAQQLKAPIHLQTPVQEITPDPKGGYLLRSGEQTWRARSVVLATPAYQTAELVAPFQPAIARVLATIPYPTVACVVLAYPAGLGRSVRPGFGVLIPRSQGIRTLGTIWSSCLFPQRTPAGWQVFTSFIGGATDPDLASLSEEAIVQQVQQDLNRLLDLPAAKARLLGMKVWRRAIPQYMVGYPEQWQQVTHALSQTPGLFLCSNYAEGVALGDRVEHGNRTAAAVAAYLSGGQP
Kind of assay: PPO enzyme inhibition assay (IC50 for herbicides), CyPPO19 wild type fused to MBP. It counts as biochemical.

Assay [2] relates to PPO-deficient BT3 E. coli (ΔPPO) transformed with CyPPO19 variant R89A+F360I (Thermosynechococcus elongatus PKUAC-SCTE542, SEQ ID NO: 1). As to the kind of experiment: Herbicide tolerance test in E. coli, CyPPO19 R89A+F360I. Format: cell-based. Conditions: LB agar, 0 to 2,000 μM herbicide, 37° C., 16-20 hours. From the text:
(§1) To enhance the PPO-inhibiting herbicide resistance of CyPPO19 and CyPPO18, PPO variant genes of the above example 2 were constructed. They were transformed to BT3 (ΔPPO) strain which is deficient of PPO activity and cultured in LB media with PPO-inhibiting herbicide, thereby examining whether growth of transformed BT3 was not inhibited.
(§2) BT3 competent cells were transformed with the pET303-CyPPO19 (wild type), pET303-CyPPO18 (wild type) plasmids, and those with a mutation(s) constructed (refer to example 2) via heat shock method, and were cultured in LB agar media containing ampicillin.
(§3) Single colony transformed with each CyPPO gene was cultured in 3 mL of LB broth (LPSS) containing ampicillin for more than 12 hours, and then was subcultured in LB broth until absorbance (OD600) reached 0.5 to 1. Then, it was diluted with LB broth to OD600=0.5. Again, the diluted solution was serially diluted 4 times by a factor of one tenth. […]
(§4) Then, 10 μL of each diluted solution of E. coli was dropped on the plate and cultured at 37° C. under dark for 16-20 hours. PPO-inhibiting herbicide resistance was evaluated with the extent of E. coli growth containing each gene was observed.
(§5) The extent of herbicide resistance was evaluated by the relative growth of variants to that of wild type, and listed in Tables 9 and 10 and FIGS. 3 to 32. […]

Assay [3] relates to PPO-deficient BT3 E. coli (ΔPPO) transformed with CyPPO19 variant V165C+F360V (Thermosynechococcus elongatus PKUAC-SCTE542, SEQ ID NO: 1). Kind of assay: Herbicide tolerance test in E. coli, CyPPO19 V165C+F360V. Conditions: LB agar, 0 to 2,000 μM herbicide, 37° C., 16-20 hours. Format: cell-based.
From the text: as §1, §2, §3, §4, §5

Assay [4] relates to PPO-deficient BT3 E. coli (ΔPPO) transformed with CyPPO18 variant A167L+F360I (Thermosynechococcus vulcanus NIES-2134, SEQ ID NO: 3). As to the kind of experiment: Herbicide tolerance test in E. coli, CyPPO18 A167L+F360I. The conditions noted are these: LB agar, 0 to 2,000 μM herbicide, 37° C., 16-20 hours. It counts as cell-based.
From the text: as §1, §2, §3, §4, §5

The subject of assay [5] is PPO-deficient BT3 E. coli (ΔPPO) transformed with CyPPO18 variant V165S+A167L+V305M+F360I (Thermosynechococcus vulcanus NIES-2134, SEQ ID NO: 3). Kind of assay: Herbicide tolerance test in E. coli, CyPPO18 V165S+A167L+V305M+F360I. It counts as cell-based. Also noted: key to the marks not given beside the values. The conditions noted are these: LB agar, 0 to 2,000 μM herbicide, 37° C., 16-20 hours.
From the text: as §1, §2, §3, §4, §5

Assay [6] deals with Thermosynechococcus elongatus PKUAC-SCTE542 protoporphyrinogen IX oxidase CyPPO19 (SEQ ID NO: 1) variant R89A (MBP fusion) (Thermosynechococcus sichuanensis, UniProt A0A7D6JSC1, R89A). As to the kind of experiment: biochemical.
Assay [7] deals with Thermosynechococcus elongatus PKUAC-SCTE542 protoporphyrinogen IX oxidase CyPPO19 (SEQ ID NO: 1) variant A167I (MBP fusion) (Thermosynechococcus sichuanensis, UniProt A0A7D6JSC1, A167I). Kind of assay: biochemical. Conditions: 50 μM protoporphyrinogen IX, pH 7.5, room temperature, 30 min, 10,000 means equivalent to or higher.
The target of assay [8] is Thermosynechococcus elongatus PKUAC-SCTE542 protoporphyrinogen IX oxidase CyPPO19 (SEQ ID NO: 1) variant A167L (MBP fusion) (Thermosynechococcus sichuanensis, UniProt A0A7D6JSC1, A167L). Kind of assay: biochemical. The conditions noted are these: 50 μM protoporphyrinogen IX, pH 7.5, room temperature, 30 min, 10,000 means equivalent to or higher.
Assay [9] deals with Thermosynechococcus elongatus PKUAC-SCTE542 protoporphyrinogen IX oxidase CyPPO19 (SEQ ID NO: 1) variant V305M (MBP fusion) (Thermosynechococcus sichuanensis, UniProt A0A7D6JSC1, V305M). As to the kind of experiment: PPO enzyme inhibition assay (IC50 for herbicides), CyPPO19 V305M fused to MBP. It counts as biochemical.
Assay [10] has as its target Thermosynechococcus elongatus PKUAC-SCTE542 protoporphyrinogen IX oxidase CyPPO19 (SEQ ID NO: 1) variant V305L (MBP fusion) (Thermosynechococcus sichuanensis, UniProt A0A7D6JSC1, V305L). Kind of assay: PPO enzyme inhibition assay (IC50 for herbicides), CyPPO19 V305L fused to MBP. Format: biochemical.
Assay [11] deals with Thermosynechococcus vulcanus NIES-2134 protoporphyrinogen IX oxidase CyPPO18 (SEQ ID NO: 3) variant A167I (MBP fusion) (Thermosynechococcus vestitus, UniProt Q8DLV2, A167I). As to the kind of experiment: PPO enzyme inhibition assay (IC50 for herbicides), CyPPO18 A167I fused to MBP. It counts as biochemical. Conditions: 50 μM protoporphyrinogen IX, pH 7.5, room temperature, 30 min.

Assay [12] concerns the target Thermosynechococcus vulcanus NIES-2134 protoporphyrinogen IX oxidase CyPPO18 (SEQ ID NO: 3) variant L327T (MBP fusion) (Thermosynechococcus vestitus, UniProt Q8DLV2, L327T). As to the kind of experiment: PPO enzyme inhibition assay (IC50 for herbicides), CyPPO18 L327T fused to MBP. It counts as biochemical. Conditions: 50 μM protoporphyrinogen IX, pH 7.5, room temperature, 30 min.

Where two headings read alike, the source gives them in different places. Where only a bound is given, the exact number is not on record here.

Sequence of Thermosynechococcus vulcanus NIES-2134 protoporphyrinogen IX oxidase CyPPO18 (SEQ ID NO: 3) variant L327T (MBP fusion) (Q8DLV2 entry or part of it L327T): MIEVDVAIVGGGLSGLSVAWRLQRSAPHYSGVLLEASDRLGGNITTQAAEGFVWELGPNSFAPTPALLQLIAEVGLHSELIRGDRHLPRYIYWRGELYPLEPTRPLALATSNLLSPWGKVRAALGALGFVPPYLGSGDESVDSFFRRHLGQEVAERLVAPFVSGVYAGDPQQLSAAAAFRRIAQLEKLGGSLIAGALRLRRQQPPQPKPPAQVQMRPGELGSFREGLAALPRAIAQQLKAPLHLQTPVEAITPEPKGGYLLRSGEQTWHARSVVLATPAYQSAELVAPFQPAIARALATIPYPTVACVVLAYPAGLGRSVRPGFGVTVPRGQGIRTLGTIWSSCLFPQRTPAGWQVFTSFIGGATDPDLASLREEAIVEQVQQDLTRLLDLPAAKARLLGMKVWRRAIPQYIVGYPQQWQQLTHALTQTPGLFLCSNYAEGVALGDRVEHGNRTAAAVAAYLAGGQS
Sequence of Thermosynechococcus elongatus PKUAC-SCTE542 protoporphyrinogen IX oxidase CyPPO19 (SEQ ID NO: 1) variant V305M (MBP fusion) (A0A7D6JSC1 entry or part of it V305M): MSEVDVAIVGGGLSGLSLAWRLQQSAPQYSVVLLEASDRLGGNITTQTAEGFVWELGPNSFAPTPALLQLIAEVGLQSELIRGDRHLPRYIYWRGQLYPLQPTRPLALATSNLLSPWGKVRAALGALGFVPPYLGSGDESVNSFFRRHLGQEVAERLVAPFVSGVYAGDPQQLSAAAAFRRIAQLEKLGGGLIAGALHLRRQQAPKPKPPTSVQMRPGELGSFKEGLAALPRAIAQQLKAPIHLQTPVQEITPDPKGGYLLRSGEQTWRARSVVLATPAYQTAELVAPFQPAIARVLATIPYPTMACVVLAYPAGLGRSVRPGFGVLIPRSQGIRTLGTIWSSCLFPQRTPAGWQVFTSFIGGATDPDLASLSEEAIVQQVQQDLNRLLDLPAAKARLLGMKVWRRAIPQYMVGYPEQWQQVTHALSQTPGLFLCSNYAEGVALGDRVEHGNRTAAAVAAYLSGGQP
Sequence of Thermosynechococcus elongatus PKUAC-SCTE542 protoporphyrinogen IX oxidase CyPPO19 (SEQ ID NO: 1) variant A167I (MBP fusion) (A0A7D6JSC1 entry or part of it A167I): as the sequence (A0A7D6JSC1 entry or part of it V305M) above, with A167I, M305V counted along it
Sequence of Thermosynechococcus elongatus PKUAC-SCTE542 protoporphyrinogen IX oxidase CyPPO19 (SEQ ID NO: 1) variant A167L (MBP fusion) (A0A7D6JSC1 entry or part of it A167L): as the sequence (A0A7D6JSC1 entry or part of it V305M) above, with A167L, M305V counted along it
Sequence of Thermosynechococcus elongatus PKUAC-SCTE542 protoporphyrinogen IX oxidase CyPPO19 (SEQ ID NO: 1) variant V305L (MBP fusion) (A0A7D6JSC1 entry or part of it V305L): as the sequence (A0A7D6JSC1 entry or part of it V305M) above, with M305L counted along it
Sequence of Thermosynechococcus vulcanus NIES-2134 protoporphyrinogen IX oxidase CyPPO18 (SEQ ID NO: 3) variant A167I (MBP fusion) (Q8DLV2 entry or part of it A167I): as the sequence (Q8DLV2 entry or part of it L327T) above, with A167I, T327L counted along it
Sequence of Thermosynechococcus elongatus PKUAC-SCTE542 protoporphyrinogen IX oxidase CyPPO19 (SEQ ID NO: 1) variant R89A (MBP fusion) (A0A7D6JSC1 entry or part of it R89A): as the sequence (A0A7D6JSC1 entry or part of it V305M) above, with R89A, M305V counted along it

For the compound `CCOc1cc(Oc2ccc(C(F)(F)F)cc2Cl)ccc1[N+](=O)[O-]` [Oxyfluorfen], the concentration for half-maximal inhibition (IC50) (in general, the point on the concentration scale where inhibition reaches its midpoint) in assay [1] turned out to be 0.57 µM; in [6], 0.602 µM; in assay [7] (read-out: IC50), 1.33 µM; in [8] (read-out: IC50), 5.26 µM; in assay [9] it was 0.732 µM; in [10] it was 0.793 µM. Further, the IC50 in [11] is 2 µM; in assay [12] it was 3.6 µM. Further, the “tolerance level (relative growth of variant to wild type)” value is listed as “+” in [2], “++” in [3], “+” in [4] and “++” in assay [5].
Take `Cc1nn(-c2cc(CC(Cl)C(=O)O)c(Cl)cc2F)c(=O)n1C(F)F` (stereo not drawn) [Carfentrazone]: the 50% inhibitory concentration (IC50) in [1] (CyPPO19 WT, 50 μM protoporphyrinogen IX, pH 7.5, room temperature, 30 min) was 0.763 µM; in [6] (CyPPO19 R89A, 50 μM protoporphyrinogen IX, pH 7.5, room temperature, 30 min) it was 0.857 µM; in assay [7] it was no less than 10 µM; in [8] it was no less than 10 µM; in assay [9] (CyPPO19 V305M, 50 μM protoporphyrinogen IX, pH 7.5, room temperature, 30 min) it was 0.91 µM; in assay [10] (CyPPO19 V305L, 50 μM protoporphyrinogen IX, pH 7.5, room temperature, 30 min), 1.33 µM. Besides, the results for the IC50 in assay [11] and in assay [12] were 2.6 µM and 0.723 µM, respectively. For the same compound, the “tolerance level (relative growth of variant to wild type)” value in [2] was “+”; in [3], “+”; in assay [4], “++”; in [5] it was “++”.
